# Measurements from patent US8673578B2, “Methods of identifying antagonists of the hTAS2R46 bitter taste receptor” (Deutsches Institut für Ernahrungsforschung Potsdam-Rehbrücke, priority 2009, dated 2014).
# What was measured:
# [1] = target: T1, hTAS2R46 (Homo sapiens, UniProt P59540); experiment: calcium imaging (FLIPR), activation of hTAS2R-transfected HEK293T-Gα16gust44 cells; assay type: cell-based; conditions: absence of agonist
# T1 construct: expressed in transfected cells; host or cells: HEK293T cells stably expressing chimeric Gα16gust44, transient transfection
# T1 sequence (P59540 1-309): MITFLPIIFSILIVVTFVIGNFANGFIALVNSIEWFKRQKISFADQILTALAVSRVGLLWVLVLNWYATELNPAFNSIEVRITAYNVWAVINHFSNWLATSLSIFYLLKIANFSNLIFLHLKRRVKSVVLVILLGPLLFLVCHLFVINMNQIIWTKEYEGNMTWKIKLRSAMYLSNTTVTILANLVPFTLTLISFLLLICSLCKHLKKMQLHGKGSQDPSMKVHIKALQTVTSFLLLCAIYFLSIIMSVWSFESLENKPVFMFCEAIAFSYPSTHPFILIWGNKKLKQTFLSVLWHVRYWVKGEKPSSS
# From the text: (§1) Human TAS2R cDNAs were cloned into pcDNA5/FRT (Invitrogen, San Diego, Calif.). For adequate plasma membrane targeting, receptor cDNA was fused to the aminoterminal sequence of the rat somatostatin type 3 receptor at the aminoterminus of the recombinant protein (Bufe, B., T. Hofmann, et al. (2002) Nat Genet. 32(3): 397-401). For immunological detection, the Herpes simplex Glycoprotein D epitope was supplemented at the carboxyterminus of the recombinant protein (Bufe et al., supra). Receptor constructs were transiently transfected into HEK293T cells stably expressing the chimeric G protein subunit Gα16gust44 (Ueda, T., S. Ugawa, et al. (2003) J Neurosci 23(19): 7376-80) using Lipofectamine 2000 (Invitrogen, San Diego, Calif.) in 96-well plates.
# Calcium Imaging experiments were performed 24 h after transfection using a Fluorometric Imaging Plate Reader (FLIPR, Molecular Devices, Munich, Germany) as previously described (Bufe et al., supra). Taste active compounds were ordered from Sigma (Sigma-Aldrich, Taufkirchen, Germany). Absinthin, 3β hydroxy dihydro costunolide and 3β hydroxy pelenolide were kindly provided by Giovanni Appendino (Novara, Italy). Test substances were directly dissolved in C1 buffer (130 mM NaCl, 10 mM Na-Hepes, 10 mM Glucose, 5 mM KCl, 2 mM CaCl2, pH 7.4) or in DMSO, respectively. DMSO stocks were further diluted in C1 buffer not exceeding a final DMSO concentration of 1% on the cells. For the investigation of antagonistic effects, test substances were premixed. Agonists were applied at concentrations corresponding to EC90, except where indicated otherwise (Table 2). Data were collected from 3 independent experiments performed in quadruplicates and processed with SigmaPlot (SPSS, Chicago, Ill.). Fluorescence signals after application of test substances were corrected for and normalized to background fluorescence (ΔF/F═(F−F0)/F0), and baseline noise was subtracted. Calculation of dose-response curves was done by nonlinear regression using the function f(y)=((a−d)/(1+(x/EC50)^nH)+d). […]
# (§2) Finally, the impact of chemical modifications on the antagonistic properties of 3β hydroxy dihydro costunolide on hTAS2R46-expressing cells was studied. Derivatives of 3β hydroxy dihydro costunolide with site-directed modifications at C3 and C11 were generated (FIG. 7A) These derivatives were tested for activation or inhibition of hTAS2R46-expressing cells in the absence or presence of the agonist strychnine (3 μM) and half-maximum effective concentrations (EC50) or half-maximal inhibitory concentrations were calculated (FIG. 7B).
# [2] = target: T1, hTAS2R46; experiment: calcium imaging (FLIPR), effect on agonist-dependent hTAS2R activation; assay type: cell-based; conditions: presence of agonist strychnine 3 μM
# From the text: as §1
# Calcium Imaging experiments were performed 24 h after transfection using a Fluorometric Imaging Plate Reader (FLIPR, Molecular Devices, Munich, Germany) as previously described (Bufe et al., supra). Taste active compounds were ordered from Sigma (Sigma-Aldrich, Taufkirchen, Germany). Absinthin, 3β hydroxy dihydro costunolide and 3β hydroxy pelenolide were kindly provided by Giovanni Appendino (Novara, Italy). Test substances were directly dissolved in C1 buffer (130 mM NaCl, 10 mM Na-Hepes, 10 mM Glucose, 5 mM KCl, 2 mM CaCl2, pH 7.4) or in DMSO, respectively. DMSO stocks were further diluted in C1 buffer not exceeding a final DMSO concentration of 1% on the cells. For the investigation of antagonistic effects, test substances were premixed. Agonists were applied at concentrations corresponding to EC90, except where indicated otherwise (Table 2). Data were collected from 3 independent experiments performed in quadruplicates and processed with SigmaPlot (SPSS, Chicago, Ill.). Fluorescence signals after application of test substances were corrected for and normalized to background fluorescence (ΔF/F═(F−F0)/F0), and baseline noise was subtracted. Calculation of dose-response curves was done by nonlinear regression using the function f(y)=((a−d)/(1+(x/EC50)^nH)+d).
# To test 3β hydroxy dihydro costunolide and 3β hydroxy pelenolide for antagonistic or enhancing effects on hTAS2R activation, transfected cells were stimulated with cognate agonist bitter substances at EC90 concentrations (Table 2) without 3β hydroxy dihydro costunolide and 3β hydroxy pelenolide. The cellular responses after application of the agonist alone were set to 100%, responses obtained after coapplication of agonists and 100 μM 3β hydroxy dihydro costunolide or 100 μM 3β hydroxy pelenolide are shown relative to this value (FIG. 4).
# Next we determined concentrations of half-maximal inhibition of TAS2R46. FIG. 5 illustrates the concentration-inhibition curves of TAS2R46 activated by picrotoxinin in the presence of various concentrations of 3β hydroxy dihydro costunolide or 3β hydroxy pelenolide. […] In agreement with the data described above the costunolide analog appears to be more potently inhibiting TAS2R46 than the pelenolide analog. […] As expected 3β hydroxy pelenolide has to be employed at ˜6 fold higher concentrations than 3β hydroxy dihydro costunolide to achieve 50% receptor inhibition.
# Next, we established concentration-response curves for strychnine at TAS2R46 in the presence of various concentrations of 3β hydroxy dihydro costunolide.
# as §2
action on hTAS2R46-expressing cells (activation) [1],Compound,action on hTAS2R46-expressing cells (inhibition) [2]
agonist,"C=C1C(=O)O[C@@H]2/C=C(\C)CC/C=C(\C)CC[C@@H]12 [Costunolide, reference compound]",–
no influence on the agonistic properties,C/C1=C\[C@H]2OC(=O)[C@@H](C)[C@@H]2CC/C(C)=C/CC1 [dihydro costunolide],–
–,C/C1=C\CC(=O)/C(C)=C/[C@H]2OC(=O)[C@@H](C)[C@@H]2CC1 [3keto dihydro costunolide],antagonists

Compound,action on hTAS2R46-expressing cells (activation) [1],action on hTAS2R46-expressing cells (inhibition) [2]
CC(=O)O[C@H]1C/C=C(\C)CC[C@H]2[C@H](C)C(=O)O[C@@H]2/C=C/1C [3β hydroxy dihydro costunolide acetate],agonists,–
